Assay results: ChEMBL document CHEMBL1132669, “New generation dopaminergic agents. 7. Heterocyclic bioisosteres that exploit the 3-OH-phenoxyethylamine D2 template” (Bioorg Med Chem Lett, 1999)
Calls of active or inactive are those of the source. No cut-off for these calls is given here.

Key:
[1] = molecular target: D(2) dopamine receptor (Rattus norvegicus) (UniProt P61169); assay: Relative binding affinity for low and hugh affinity type dopamine D2 receptors in rat striatal membranes; format: cell membranes; conditions: Striatum, Membrane
D(2) dopamine receptor (Rattus norvegicus), sequence (P61169 whole entry): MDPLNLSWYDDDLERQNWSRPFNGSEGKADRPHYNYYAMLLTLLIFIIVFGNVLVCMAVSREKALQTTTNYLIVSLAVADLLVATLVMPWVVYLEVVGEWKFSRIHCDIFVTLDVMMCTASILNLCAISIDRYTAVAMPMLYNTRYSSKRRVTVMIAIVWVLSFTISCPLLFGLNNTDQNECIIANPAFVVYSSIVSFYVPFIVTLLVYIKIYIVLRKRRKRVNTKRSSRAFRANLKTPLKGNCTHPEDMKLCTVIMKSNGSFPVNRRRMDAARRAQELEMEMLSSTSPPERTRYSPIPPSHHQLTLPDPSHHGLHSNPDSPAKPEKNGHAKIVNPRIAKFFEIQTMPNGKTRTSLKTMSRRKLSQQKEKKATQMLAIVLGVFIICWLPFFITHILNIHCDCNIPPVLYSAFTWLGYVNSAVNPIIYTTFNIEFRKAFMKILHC

[2] = molecular target: T1, D(4) dopamine receptor (Homo sapiens, UniProt P21917); assay: Inhibition of [3H]spiperone binding to human Dopamine receptor D4.4 expressed in CHO cell membranes
T1 sequence (P21917 whole entry): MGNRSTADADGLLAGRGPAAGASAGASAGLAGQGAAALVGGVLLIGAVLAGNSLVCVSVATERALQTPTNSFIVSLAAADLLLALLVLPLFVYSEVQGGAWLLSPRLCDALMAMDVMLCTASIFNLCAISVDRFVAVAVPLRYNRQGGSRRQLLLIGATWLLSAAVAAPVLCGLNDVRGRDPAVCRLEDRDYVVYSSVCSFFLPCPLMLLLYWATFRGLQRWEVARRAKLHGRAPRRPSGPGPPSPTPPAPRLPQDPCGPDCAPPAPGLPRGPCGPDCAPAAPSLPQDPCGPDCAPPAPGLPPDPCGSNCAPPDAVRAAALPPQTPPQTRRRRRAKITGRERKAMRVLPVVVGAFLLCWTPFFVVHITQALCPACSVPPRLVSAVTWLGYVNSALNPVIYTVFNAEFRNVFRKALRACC

[3] = molecular target: D(3) dopamine receptor (Homo sapiens, UniProt P35462); assay: Inhibition of [3H]spiperone binding to human Dopamine receptor D3 in CHO cell membranes
D(3) dopamine receptor, sequence (P35462 whole entry): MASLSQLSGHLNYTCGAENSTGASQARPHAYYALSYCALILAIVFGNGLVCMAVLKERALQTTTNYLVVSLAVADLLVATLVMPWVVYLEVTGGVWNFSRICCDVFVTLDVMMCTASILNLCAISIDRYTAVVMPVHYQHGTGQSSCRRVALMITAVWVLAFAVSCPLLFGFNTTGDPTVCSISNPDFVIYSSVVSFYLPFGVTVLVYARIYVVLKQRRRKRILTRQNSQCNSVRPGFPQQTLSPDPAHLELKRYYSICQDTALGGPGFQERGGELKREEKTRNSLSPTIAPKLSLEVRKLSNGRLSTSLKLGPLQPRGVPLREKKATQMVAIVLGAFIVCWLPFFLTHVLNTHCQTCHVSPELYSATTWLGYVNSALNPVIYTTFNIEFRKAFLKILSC

[4] = molecular target: D(2) dopamine receptor (Homo sapiens, UniProt P14416); assay: Inhibition of [3H]spiperone binding to human Dopamine receptor D2 in CHO cell membranes
D(2) dopamine receptor (Homo sapiens, UniProt P14416), sequence (P14416 whole entry): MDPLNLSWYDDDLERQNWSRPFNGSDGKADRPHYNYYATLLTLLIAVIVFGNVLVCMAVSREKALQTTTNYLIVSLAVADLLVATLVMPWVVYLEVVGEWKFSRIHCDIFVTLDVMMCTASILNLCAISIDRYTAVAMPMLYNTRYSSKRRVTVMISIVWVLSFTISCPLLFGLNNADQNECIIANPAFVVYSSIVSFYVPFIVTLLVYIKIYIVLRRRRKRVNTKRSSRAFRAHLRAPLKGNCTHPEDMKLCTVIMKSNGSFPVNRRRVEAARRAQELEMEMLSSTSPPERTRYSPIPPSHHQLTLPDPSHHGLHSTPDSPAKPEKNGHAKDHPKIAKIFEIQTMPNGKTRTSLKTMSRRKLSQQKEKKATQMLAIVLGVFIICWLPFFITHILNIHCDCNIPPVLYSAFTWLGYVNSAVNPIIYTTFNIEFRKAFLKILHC

[5] = molecular target: T2, D(2) dopamine receptor (Rattus norvegicus, UniProt P61169); assay: Inhibition of [3H]quinpirole binding to rat striatal membrane Dopamine receptor D2 without GTP and sodium
T2 sequence (P61169 whole entry): as the sequence (P61169 whole entry) above

[6] = molecular target: T2, D(2) dopamine receptor; assay: Inhibition of [3H]spiperone binding to rat striatal membrane Dopamine receptor D2 low affinity without GTP and sodium
[7] = tested on: Mus musculus; assay: In vivo inhibitory activity against spontaneous locomotory activity in mice administered subcutaneously; format: functional; conditions: sc
[8] = tested on: Mus musculus; assay: Inhibitory activity against apomorphine-induced climbing in mice administered subcutaneously; format: functional; conditions: sc
[9] = tested on: Mus musculus; assay: Inhibitory activity against Sterotypy in mice administered subcutaneously; format: functional; conditions: sc
[10] = tested on: Mus musculus; assay: Inhibitory activity against Sterotypy in mice administered subcutaneously at 3 mg/kg; NS is not significant; format: functional, organism-based; set-up: dose 3 mg/kg
[11] = tested on: Mus musculus; assay: Inhibitory activity against apomorphine-induced climbing in mice administered subcutaneously at 3 mg/kg; NS is not significant; format: functional, organism-based; set-up: dose 3 mg/kg

| SMILES | Ratio [1] | Ki [2] [nM] | Ki [3] [nM] | Ki [4] [nM] | Ki [5] [nM] | Ki [6] [nM] | ED50 [7] [mg/kg] | ED50 [8] [mg/kg] | ED50 [9] [mg/kg] | ED50 [10] | ED50 [11] |
| --- | --- | --- | --- | --- | --- | --- | --- | --- | --- | --- | --- |
| c1ccc(CNCCOc2cccc3[nH]ccc23)cc1 | 4 | 230 | 19.5 | 81.8 | – | – | – | – | – | – | – |
| c1ccc(CNCCOc2cccc3nc[nH]c23)cc1 | – | 51.6 | 67.2 | 85.6 | 9.8 | 128 | – | – | – | – | – |
| FC(F)(F)c1nc2c(OCCNCc3ccccc3)cccc2[nH]1 | 10 | 3.1 | 1.15 | 1.75 | 0.18 | 1.9 | 0.007 | 0.09 | 0.33 | – | – |
| O=C1Cc2c(cccc2OCCNCc2ccccc2)N1 | 54 | 10 | 2.8 | 4.25 | – | – | – | – | – | – | – |
| Oc1nc2c(OCCNCc3ccccc3)cc(Cl)cc2[nH]1 | 11 | – | – | – | – | – | – | – | – | – | – |
| S=c1[nH]c2cccc(OCCNCc3ccccc3)c2[nH]1 | – | 3.8 | 2 | 3 | 0.18 | 2.6 | – | – | – | – | – |
| FC(F)(F)c1nc2c(OCCNCc3ccccc3)cc(Cl)cc2[nH]1 | 16 | 7 | 41.8 | 32.4 | 0.71 | 11.6 | 0.35 | – | – | inactive | inactive |
| Oc1cccc(OCCNCc2ccccc2)c1 | 28 | – | – | – | – | – | – | – | – | – | – |
| O=c1[nH]c2cc(Cl)cc(OCCNCc3ccccc3)c2[nH]1 | – | 15.8 | 7.4 | 2.6 | 0.25 | 2.7 | – | – | – | – | – |
| c1ccc(CNCCOc2cccc3[nH]ncc23)cc1 | 33 | 315 | 8.8 | 79.8 | 1.1 | 35.9 | – | – | – | – | – |
| O=c1[nH]c2cccc(OCCNCc3ccccc3)c2[nH]1 | – | 6.3 | – | – | 0.18 | 4.7 | – | – | – | – | – |
| c1ccc(CNCCOc2cccc3[nH]cnc23)cc1 | 13 | – | – | – | – | – | – | – | – | – | – |
| Cc1nc2c(OCCNCc3ccccc3)cccc2[nH]1 | 6 | 61.1 | 94.6 | 15.2 | 4.4 | 26.6 | – | – | – | – | – |
| Sc1nc2c(OCCNCc3ccccc3)cc(Cl)cc2[nH]1 | 21 | 11.2 | 12.2 | 6.5 | 0.21 | 4.5 | – | – | – | – | – |
| Sc1nc2c(OCCNCc3ccccc3)cccc2[nH]1 | 14 | – | – | – | – | – | – | – | – | – | – |
